Here are results for one compound from US20220008425A1, “Pharmaceutical Composition for Treating B-Cell Lymphoma” (FUNDAN UNIVERSITY SHANGHAI CANER CENTER, priority 2018, published 2022).

In one data set the test system is LY8-RCHO cells. Particulars: 48 hours. As to the method:
(§1) Further, we constructed LY8 and NU-DUL-1 cells resistant to chemotherapeutic drugs. Briefly, LY8-ORI and NU-DUL-1-ORI cells were treated with doxorubicin (Selleck Chemicals, Houston, Tex.) and vincristine (Selleck Chemicals, Houston, Tex.) at a clinical ratio of 50:1.4 by increasing the concentration. […] These cells were then treated with 2 μg/mL of 4-hydroperoxycyclophosphamide (4-HC) (Santa Cruz Biotechnology, Inc., Santa Cruz, Calif.) every 21 days for 3 cycles. The obtained CHO-resistant cells are referred to as LY8-CHO and NU-DUL-1-CHO, respectively. CHO-resistant cells were treated with doxorubicin, vincristine, and 4-HC every 22 days to maintain drug tolerance to CHO. […] To maintain RCHO resistance, LY8-RCHO cells and NU-DUL-1-RCHO cells were treated with 32 μg/mL of rituximab containing 20% (v/v) of NHS every 22 days, followed by treatment with doxorubicin, vincristine, and 4-HC. After 48 hours of treatment with doxorubicin, vincristine and 4-HC, drug resistance to CHO and RCHO was determined by a series of CCK-8 assays.
(§2) Cells were seeded in a 96-well plate at a density of 1×10^4/100 μL/well. Cells were pretreated with IPI-145, abemaciclib, AZD4547, PF-573228, R788, or saracatinib at increasing concentrations with or without CHO for 48 hours prior to performing CytoTox-Glo™ cytotoxicity assay. We performed cytotoxicity assay by using a CytoTox-Glo™ cytotoxicity assay kit (Promega Inc., Madison, Wis.) according to their instructions. Briefly, 50 μL of CytoTox-Glo™ cytotoxicity assay reagent was added to all wells, mixed by orbital shaking, and then incubated for 15 minutes at room temperature. Luminescence of experimental dead cells was detected with a Synergy HT microplate reader (BioTek, Biotek Winooski, Minn.), wherein 50 μL of lysate was added to all wells, mixed and incubated for 15 minutes at room temperature prior to detection of total luminescence. Cytotoxicity was calculated according to the following formula: Cytotoxicity (%)=Experimental dead cell luminescence/Total luminescence×100%.

The test system of data set [1] is NU-DUL-1-RCHO cells. The note with it: 48 hours. As to the method: as §1, §2
Data set [2] relates to SOX2 in tumor tissues grown from NU-DUL-1-RCHO-Luc cells. The data set can be described thus: SOX2 immunohistochemical staining of tumor tissues from the transplantation model. In kind it is in vivo, SCID mice. Particulars: tumors from NU-DUL-1-RCHO-Luc cells; compared with saline control. The source says: (§3) Construction of a transplantation model: we transduced LY8-RCHO cells and NU-DUL-1-RCHO cells with lentiviruses overexpressing the firefly luciferase gene to generate stable cells expressing firefly luciferase, referred to as LY8-RCHO-Luc cells and NU-DUL-1-RCHO-Luc cells, respectively. 8-week-old female SCID mice were purchased from SLAC (Shanghai laboratory animal center). The LY8-RCHO-Luc cells and NU-DUL-1-RCHO-Luc cells were resuspended in PBS prior to intraperitoneal injection of 1.5×10^7 cells per mouse. After intraperitoneal injection of the LY8-RCHO-Luc cells, mice were randomized into 6 groups (7 mice in every group) and given saline, R-CHOP, duvelisib, abemaciclib, R-CHOP+duvelisib, and R-CHOP+abemaciclib, respectively. Mice inoculated with the NU-DUL-1-RCHO-Luc cells were randomly divided into 6 groups (7 mice in every group), and were given saline, R-CHOP, duvelisib, AZD4547, R-CHOP+duvelisib, and R-CHOP+AZD4547, respectively. […] Tumor growth was monitored by bioluminescence at day 50 and day 90 after inoculation. For in vivo luminescence imaging, D-luciferin (Promega, Madison, Wis.) was intraperitoneally injected into mice (150 mg/kg). […] Luminescence images were captured with an exposure time of 30 seconds and the signal intensity of the tumor was measured by using Bruker MI software. The survival time of each mouse was recorded. […]
(§4) Tumor tissues from patients or animal models were fixed with 4% formalin, embedded in paraffin and sectioned. […] Immunoreactivity was then detected by using a GTVision III immunohistochemical detection kit (GK500705; Gene Tech Inc., Shanghai, China) according to its instructions. Quantitative scoring of immunostaining for SOX2, p-AKT, CDK6, FGFR1 and FGFR2 was performed on three independent sections under the microscope, according to the formula: score=3 (strong positive)×percentage+2 (medium positive)×percentage+1 (weak positive)×percentage+0 (negative)×percentage.

The test system of data set [3] is SOX2 in tumor tissues grown from LY8-RCHO-Luc cells. Described as above. In kind it is in vivo, SCID mice. The note with it: tumors from LY8-RCHO-Luc cells; compared with saline control.
Description: as §3, §4

Data set [4] deals with AKT phosphorylation, SOX2, CDK6 and CSC-associated molecules in LY8-RCHO cells. The data set can be described thus: Immunoblot analysis. In kind it is cell-based, human.
The test system of data set [5] is NU-DUL-1-RCHO cells. The data set can be described thus: Aldefluor analysis (ALDH1+ cells). In kind it is cell-based, human. As to the method:
ALDH1 is a selectable marker for a variety of normal and cancer stem cells, including hematopoietic stem cells. Therefore, we assessed the number of cancer stem cells in hematopoietic malignancies by detecting ALDH1 positive cells. As previously described, we used an ALDEFLUOR™ kit (StemCell Technologies, Vancouver, BC, CA) to detect populations with high ALDH1 activity. Briefly, 1×10^6 cells were suspended in 1 mL of assay buffer containing 1 μM of BAAA, a substrate of […]. Suspended cells were then equally divided into two samples, one as a negative control and the other as a test sample. To form the negative control, […] of DEAB, a specific ALDH inhibitor, was added to one equally-divided sample. Cells were then incubated at 37° C. for 30 minutes prior to flow cytometry analysis.

The mark [6] stands for this setting: inhibitor alone at increasing concentrations.
Setting [7] is: inhibitor at increasing concentrations with CHO.

Each structure is given as a SMILES string. “Also recorded” adds a separate entry of the source.

As for `C[C@H](Nc1ncnc2[nH]cnc12)c1cc2cccc(Cl)c2c(=O)n1-c1ccccc1` [duvelisib], the “cytotoxicity (induction of cell death), inhibitor used alone” value in the data set with LY8-RCHO cells (setting [6]) and in the data set on NU-DUL-1-RCHO cells [1] (setting [6]) was “only slightly somewhat cytotoxic; also recorded: negligible effect on direct induction of cell death” each time. The “reversal of resistance to CHO (cytotoxicity of CHO), inhibitor co-treated with CHO” value in the data set on LY8-RCHO cells (setting [7]) and in the data set with NU-DUL-1-RCHO cells [1] (setting [7]) was “significantly enhanced the cytotoxicity of CHO in the two RCHO-resistant cell lines in a dose-dependent manner; also recorded: significantly reversed resistance of RCHO-resistant cells to CHO” in each case. The “SOX2 expression level in tumor tissue (IHC)” value in data set [2] and in data set [3] was “significantly reduced the expression levels of SOX2 compared with a saline control” in each case. The “AKT phosphorylation and expression of SOX2 and CDK6” value in data set [4] is “reduces the expression of SOX2 and CDK6 by inhibiting AKT phosphorylation; also recorded: prevented phosphorylation of AKT and induced degradation of SOX2, thereby reducing expression of CDK6”. The “levels of CSC-associated molecules (OCT4, NANOG, KLF4, c-MYC, CD34, CD133)” value in data set [4] is recorded as “significantly reduced levels of CSC-associated molecules in the RCHO-resistant cells”. For the same compound, in the data set on NU-DUL-1-RCHO cells [5], the “proportion of ALDH1+ cells (CSCs)” value is “significantly reduced ALDH1+ subpopulations in LY8-RCHO and NU-DUL-1-RCHO cells”.
